≈ marks a conversion by molar mass, not a printed value. Where a SMILES comes first, the peptide text is derived from it. [ ]: non-standard residue; d: D form. Pro(4R-Bn) = O=C(O)[C@@H]1C[C@@H](Cc2ccccc2)CN1
What was measured:
MDA-MB-231 = assay: Antitumor activity against human MDA-MB-231 cells assessed as decrease in cell viability measured after 36 hrs by WST-1 assay; assay type: functional, cell-based; details: MDA-MB-231, 36 h
PANC-1 = assay: Antitumor activity against human PANC-1 cells assessed as decrease in cell viability measured after 36 hrs by WST-1 assay; assay type: functional, cell-based; details: PANC-1, 36 h
[1] = Cytotoxicity against human MC3T3-E1 cells assessed as decrease in cell viability measured after 36 hrs by WST-1 assay; assay type: toxicity, cell-based; details: mouse
[2] = Selectivity index, Ratio of IC50 for human MC3T3-E1 cells to IC50 of human MDA-MB-231 cells; assay type: toxicity; details: MC3T3-E1 cells versus MDA-MB-231 cells, read-out: Ratio IC50
[3] = Selectivity index, Ratio of IC50 for human MC3T3-E1 cells to IC50 of human PANC-1 cells
Nonstructural protein 5A [4] = target: T1, Nonstructural protein 5A (Hepatitis C virus, UniProt Q5L478); assay: Inhibition of HCV genotype 1a NS5A; parameters: species or system Hepacivirus hominis
T1 sequence (Q5L478 whole entry): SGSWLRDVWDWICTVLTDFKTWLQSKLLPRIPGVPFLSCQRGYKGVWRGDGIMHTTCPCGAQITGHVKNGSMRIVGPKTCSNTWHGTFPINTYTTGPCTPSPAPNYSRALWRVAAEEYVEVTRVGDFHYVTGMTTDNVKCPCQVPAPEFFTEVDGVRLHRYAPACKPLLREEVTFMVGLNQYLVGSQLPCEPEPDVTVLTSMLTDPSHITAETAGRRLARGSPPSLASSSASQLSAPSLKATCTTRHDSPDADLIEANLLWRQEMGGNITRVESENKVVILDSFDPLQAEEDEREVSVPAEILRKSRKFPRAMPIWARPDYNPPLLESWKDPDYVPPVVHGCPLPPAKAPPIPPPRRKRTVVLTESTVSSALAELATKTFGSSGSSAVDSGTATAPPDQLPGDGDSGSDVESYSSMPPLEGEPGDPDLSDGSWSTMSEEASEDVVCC

Nonstructural protein 5A [5] = target: T1, Nonstructural protein 5A; assay: Inhibition of HCV genotype 1b NS5A; parameters: species or system Hepacivirus hominis
Nonstructural protein 5A [6] = target: T1, Nonstructural protein 5A; assay: Inhibition of HCV genotype 2a NS5A; parameters: species or system Hepacivirus hominis
Nonstructural protein 5A [7] = target: T1, Nonstructural protein 5A; assay: Inhibition of HCV genotype 3a NS5A; parameters: species or system Hepacivirus hominis
Nonstructural protein 5A [8] = target: T1, Nonstructural protein 5A; assay: Inhibition of HCV genotype 4a NS5A; parameters: species or system Hepacivirus hominis
Nonstructural protein 5A [9] = target: T1, Nonstructural protein 5A; assay: Inhibition of HCV genotype 5a NS5A; parameters: species or system Hepacivirus hominis
Nonstructural protein 5A [10] = target: T1, Nonstructural protein 5A; assay: Inhibition of HCV genotype 6a NS5A; parameters: species or system Hepacivirus hominis
Escherichia coli = assay: Antimicrobial activity against Escherichia coli ATCC 25922 incubated for 18 to 20 hrs; assay type: functional; details: time 18-20 hrs
Priestia megaterium = assay: Antimicrobial activity against Bacillus megaterium Bm11 incubated for 18 to 20 hrs; assay type: functional; details: time 18-20 hrs
[11] = system: Staphylococcus epidermidis; assay: Antimicrobial activity against Staphylococcus epidermidis ATCC 12228 incubated for 18 to 20 hrs; assay type: functional; details: time 18-20 hrs
Pseudomonas aeruginosa = assay: Antimicrobial activity against Pseudomonas aeruginosa ATCC 27853 incubated for 18 to 20 hrs; assay type: functional; details: time 18-20 hrs
Candida albicans = assay: Antimicrobial activity against Candida albicans ATCC 24433 incubated for 18 to 20 hrs; assay type: functional; details: time 18-20 hrs

For `CCCCCCCCC#CC(c1ccccc1)N1CCCC1` (configuration not stated), which IC50 (MDA-MB-231) is on record?
Its IC50 is 74000 nM.

And the IC50 (PANC-1)?
The IC50 was 21600 nM.

And the IC50 at 36 h [1]?
The IC50 at 36 h was 250000 nM.

What about the selectivity ratio [2] of the same compound?
The selectivity ratio was 3.38.

And the “Ratio IC50” value [3]?
Its value is 11.6.

Which results are given for `COC(=O)N[C@H](C(=O)N1CCC[C@H]1c1ncc(-c2ccc3c(c2)CC2c4c(F)cc(-c5cnc([C@@H]6CCCN6C(=O)[C@@H](NC(=O)OC)C(C)C)[nH]5)cc4O[C@@H](c4cnc(C5CC5)s4)N32)[nH]1)C(C)C` (some centres not stated)?
EC50 (Nonstructural protein 5A [4]): 0.0007 nM; EC50 (Nonstructural protein 5A [5]): 0.002 nM; EC50 (Nonstructural protein 5A [6]): 0.001 nM; EC50 (Nonstructural protein 5A [7]): 0.003 nM; EC50 (Nonstructural protein 5A [8]): 0.0007 nM; EC50 (Nonstructural protein 5A [9]): 0.0018 nM; EC50 (Nonstructural protein 5A [10]): 0.001 nM

With `CC[C@H](C)[C@H](NC(=O)[C@H](CCCNC(=N)N)NC(=O)CNC(=O)[C@H](CC(C)C)NC(=O)[C@H](Cc1ccccc1)NC(=O)[C@H](CCCCN)NC(=O)[C@H](CO)NC(=O)[C@H](Cc1ccccc1)NC(=O)[C@H](Cc1c[nH]c2ccccc12)NC(=O)[C@H](CCC(N)=O)NC(=O)[C@@H]1C[C@@H](Cc2ccccc2)CN1C(=O)[C@@H](NC(=O)[C@@H](N)Cc1ccccc1)C(C)C)C(=O)N[C@@H](CC(C)C)C(N)=O` (H-FV[Pro(4R-Bn)]QWFSKFLGRIL-NH2) as the compound, how does the MIC (Escherichia coli) read?
The MIC was 25 µM (≈ 45.7 µg/mL).

And the MIC (Priestia megaterium)?
The MIC was 3.12 µM (≈ 5.7 µg/mL).

And the MIC [11]?
Its MIC is 3.12 µM (≈ 5.7 µg/mL).

What about the MIC (Pseudomonas aeruginosa) of the same compound?
The MIC was 50 µM (≈ 91.4 µg/mL).

And the MIC (Candida albicans)?
The MIC was 25 µM (≈ 45.7 µg/mL).

With `CCCCCCCCC#CC(c1ccc(C(=O)OC)cc1)N1CCCC1` (configuration not stated) as the compound, how does the IC50 (MDA-MB-231) read?
The IC50 was 291000 nM.

And the IC50 (PANC-1)?
Its IC50 is 13600 nM.

And the IC50 at 36 h [1]?
Its IC50 at 36 h is 558000 nM.

What about the selectivity ratio [2] of the same compound?
Its selectivity ratio is 1.91.

What about the “Ratio IC50” value [3] of the same compound?
Its value is 41.17.
